Test results: patent publication US10119168B2, “Methods for the treatment of kidney fibrosis” (priority 2014, dated 2018)

Tested on: mouse kidney
Assay: Folic acid nephropathy model, High dose vs Low dose FA (histology, qRT-PCR)
Details: High dose group compared to Low dose group, day 14
Procedure: Mice were sacrificed at 1, 2, 3, 7 and 14 days following administration. […] All mice were sacrificed at 14 days.
Formalin fixed, paraffin embedded kidney sections were Masson Trichrome's stained and evaluated by a renal pathologist under a light microscope in blinded fashion relative to sample group. Percent area of fibrosis relative to the total section area was evaluated. Sirius red staining of the […] sections was performed at the Michigan State University Investigative Histopathology Laboratory.
Total RNA was extracted from frozen kidney tissue using TRIzol reagent (Invitrogen). Following RNA concentration measurement by NanoDrop spectrophotometer (Thermo Fischer Scientific), 1 μg RNA was used for cDNA preparation using QuantiTect Reverse Transcription Kit from Qiagen (Valencia, Calif.). qRT-PCR using QuantiFast SYBR Green PCR Kit (Qiagen) was performed in 384-well plates on an Applied Biosystems 7900HT Fast Real-Time PCR System instrument with the following temperature profile: 3 min enzyme activation at 95° C. followed by 40 cycles of 95° C. for 10 s, and 55° C. for 30 s. Primer pairs used are listed in Supplementary Table 1. Gapdh was used as reference gene for normalization. The SDS 2.4 software (Applied Biosystems) was used to compute the threshold cycle (Cq) and the relative expression for an mRNA was assessed using the 2^−ΔCq method.

Nc1nc2ncc(CNc3ccc(C(=O)N[C@@H](CCC(=O)O)C(=O)O)cc3)nc2c(=O)[nH]1 [FA, folic acid]
candidate fibrosis markers mRNA levels: Nine out of ten candidate fibrosis markers showed significantly (p<0.05) higher mRNA levels
